Measured values as given in patent publication US20260234165A1, “MACROCYCLIC COMPOUNDS, PREPARATION METHOD THEREFOR, AND USE THEREOF” (GENFLEET THERAPEUTICS (SHANGHAI) INC., priority 2004, published 2026).
Like-named read-outs stand apart in the source and are kept apart here.

Key:
Assay type in all cases: cell-based, human
[1] = system: p-ERK in AsPC-1 cells (KRAS G12D mutation); assay: Cell p-ERK assay (HTRF) in AsPC-1 cells; conditions: AsPC-1 cells, 3 h compound incubation, HTRF p-ERK T202/Y204, read-out: AsPC-1 p-ERK IC50
How it was run: (§1)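 IC50 values derive from four-parameter fitting of p-ERK (T202/Y204) HTRF inhibition, normalized to DMSO and blank controls. The lysates came from cells exposed for 3 h to serial 3.16-fold compound dilutions at 0.1% DMSO, after overnight plating at 10000 AsPC-1 or 20000 NCI-H441 cells per well.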

[2] = system: AsPC-1 cells (KRAS G12D mutation); assay: 3D cell proliferation assay (CellTiter Glo-3D), AsPC-1; conditions: medium with 2% FBS, read-out: AsPC-1 AP IC50
How it was run: (§2)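 Cells seeded at 800 per well in medium with 2% FBS, treated next day with 3.16-fold dilution series (0.1% DMSO) for 5 days at 37°C. Viability by CellTiter-Glo 3D luminescence; inhibition normalised to DMSO and cell-free controls, IC50 by four-parameter fit.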

NCI-H441 cells = assay: 3D cell proliferation assay (CellTiter Glo-3D), NCI-H441; conditions: medium with 2% FBS, read-out: H441 AP IC50
How it was run: as §2

[3] = system: p-ERK in NCI-H441 cells (KRAS G12V mutation); assay: Cell p-ERK assay (HTRF) in NCI-H441 cells; conditions: NCI-H441 cells, 3 h compound incubation, HTRF p-ERK T202/Y204, read-out: H441 p-ERK IC50
How it was run: as §1

[4] = Homo sapiens, ASPC1, 3D cell proliferation (CellTiter Glo-3D)
[5] = Homo sapiens, NCI-H441, 3D cell proliferation (CellTiter Glo-3D)
[6] = 3D cell proliferation (CellTiter Glo-3D)

Structure (SMILES) | IC50 ([1]; Homo sapiens, ASPC1, 3 h) [nM] | IC50 [2, 4] [nM] | IC50 (NCI-H441 cells; [5]) [nM] | IC50 ([3]; Homo sapiens, NCI-H441, 3 h) [nM] | IC50 [1] [nM] | IC50 [2, 6] [nM] | IC50 (NCI-H441 cells; [6]) [nM] | IC50 [3] [nM]
CO[C@@H](C)c1ncc(OCCN2CCS(=O)(=O)CC2)cc1-c1c2c3cc(ccc3n1CC(F)(F)F)-c1csc(n1)C[C@H](NC(=O)[C@H]1C[C@@H]1C)C(=O)N1CCC[C@H](N1)C(=O)OCC(C)(C)C2 (atropisomer, axis not shown; (Ra)) [Compound Z677, (1S,2S)—N-((6^3S,4S,Z)—(Ra)-1^2-(5-(2-(1,1-dioxidothiomorpholino)ethoxy)-2-((S)-1-methoxyethyl)pyridin-3-yl)-10,10-dimethyl-5,7-dioxo-1^1-(2,2,2-trifluoroethyl)-6^1,6^2,6^3,6^4,6^5,6^6-hexahydro-1^1H-8-oxa-2(4,2)-thiazola-1(5,3)-indola-6(1,3)-pyridazinacycloundecaphane-4-yl)-2-methylcyclopropane-1-carboxamide] | 0.35 | 0.53 | 0.2 | 0.29 |  |  |  | 
CO[C@@H](C)c1ncc(OCCN2CCS(=O)(=O)CC2)cc1-c1c2c3cc(ccc3n1C(C)C)-c1csc(n1)C[C@H](NC(=O)[C@H]1[C@H](C)[C@@H]1C)C(=O)N1CCC[C@H](N1)C(=O)OCC(C)(C)C2 (atropisomer, axis not shown; (Ra)) [Compound Z678, (1r,2R,3S)—N-((6^3S,4S,Z)—(Ra)-1^2-(5-(2-(1,1-dioxidothiomorpholino)ethoxy)-2-((S)-1-methoxyethyl)pyridin-3-yl)-1^1-isopropyl-10,10-dimethyl-5,7-dioxo-6^1,6^2,6^3,6^4,6^5,6^6-hexahydro-1^1H-8-oxa-2(4,2)-thiazola-1(5,3)-indola-6(1,3)-pyridazinacycloundecaphane-4-yl)-2,3-dimethylcyclopropane-1-carboxamide] |  |  |  |  | 0.06 | 0.17 | 0.06 | 0.17
CCn1c(-c2cc(C#CCN3CCN(C)CC3)cnc2[C@H](C)OC)c2c3cc(ccc31)-c1csc(n1)C[C@H](NC(=O)[C@H]1[C@H](C)[C@@H]1C)C(=O)N1CCC[C@H](N1)C(=O)OCC(C)(C)C2 (atropisomer, axis not shown; (Ra)) [Compound Z703] | 0.36 | 0.68 | 0.3 | 0.17 |  |  |  | 
CCn1c(-c2cc(N3CCN(C)CC3)cnc2[C@H](C)OC)c2c3cc(ccc31)-c1csc(n1)C[C@H](Nc1nnc3cc(OC)ccn13)C(=O)N1CCC[C@H](N1)C(=O)OCC(C)(C)C2 (atropisomer, axis not shown; (Ra)) [Compound Z777, N-((6^3S,4S,Z)-1^1-ethyl-(Ra)-1^2(2-((S)-1-methoxyethyl)-5-(4-methylpiperazin-1-yl)pyridin-3-yl)-10,10-dimethyl-5,7-dioxo-6^1,6^2,6^3,6^4,6^5,6^6-hexahydro-1^1H-8-oxa-2(4,2)-thiazola-1(5,3)-indola-6(1,3)-pyridazinacycloundecaphane-4-yl)-4-(7-methoxy-[1,2,4]triazolo[4,3-a]pyridin-3-yl)amine] |  |  |  |  | 61.9 | 87.9 | 18.2 | 22.2
CCn1c(-c2cc(OC[C@@H]3CCCN3Cc3ccn(C)n3)cnc2[C@H](C)OC)c2c3cc(ccc31)-c1csc(n1)C[C@H](NC(=O)[C@H]1[C@H](C)[C@@H]1C)C(=O)N1CCC[C@H](N1)C(=O)OCC(C)(C)C2 (atropisomer, axis not shown; (Ra)) [Compound Z784-1, (1r,2R,3S)—N-((6^3S,4S,Z)—(Ra)-1^2-5-(((S)-1-((1-methyl-1H-pyrazol-3-yl)methyl)pyrrolidin-2-yl)methoxy)-(2-((S)-1-methoxyethyl)-pyridin-3-yl)-10,10-dimethyl-5,7-dioxo-6^1,6^2,6^3,6^4,6^5,6^6-hexahydro-1^1H-8-oxa-2(4,2)-thiazola-1(5,3)-indola-6(1.3)-pyridazinacycloundecaphane-4-yl)-2,3-dimethylcyclopropane-1-carboxamide] | 0.89 | 1.37 | 0.93 | 0.9 |  |  |  | 
CCn1c(-c2cc(OC[C@H]3CCCN3Cc3ccn(C)n3)cnc2[C@H](C)OC)c2c3cc(ccc31)-c1csc(n1)C[C@H](NC(=O)[C@H]1[C@H](C)[C@@H]1C)C(=O)N1CCC[C@H](N1)C(=O)OCC(C)(C)C2 (atropisomer, axis not shown; (Ra)) [Compound Z784-2, (1r,2R,3S)—N-((6^3S,4S,Z)—(Ra)-1^2-5-(((R)-1-((1-methyl-1H-pyrazol-3-yl)methyl)pyrrolidin-2-yl)methoxy)-(2-((S)-1-methoxyethyl)-pyridin-3-yl)-10,10-dimethyl-5,7-dioxo-6^1,6^2,6^3,6^4,6^5,6^6-hexahydro-1^1H-8-oxa-2(4,2)-thiazola-1(5,3)-indola-6(1.3)-pyridazinacycloundecaphane-4-yl)-2,3-dimethylcyclopropane-1-carboxamide] | 0.66 | 0.83 | 0.53 | 0.8 |  |  |  | 
CCn1c(-c2cc(OCCN3CCN(C)S(=O)(=O)CC3)cnc2[C@H](C)OC)c2c3cc(ccc31)-c1csc(n1)C[C@H](NC(=O)[C@H]1[C@H](C)[C@@H]1C)C(=O)N1CCC[C@H](N1)C(=O)OCC(C)(C)C2 (atropisomer, axis not shown; (Ra)) [Compound Z796] | 0.42 | 1.1 | 0.28 | 0.55 |  |  |  | 
CCn1c(-c2cc(C#CC(=O)N3CCCOCC3)cnc2[C@H](C)OC)c2c3cc(ccc31)-c1csc(n1)C[C@H](NC(=O)[C@H]1[C@H](C)[C@@H]1C)C(=O)N1CCC[C@H](N1)C(=O)OCC(C)(C)C2 (atropisomer, axis not shown; (Ra)) [Compound Z810, (1r,2R,3S)—N-((6^3S,4S,Z)-1^1-ethyl-(Ra)-1-(5-(3-(1,4-oxazepan-4-yl)-3-oxoprop-1-yn-1-yl)-2-((S)-1-methoxyethyl)pyridin-3-yl)-10,10-methyl-5,7-dioxo-6^1,6^2,6^3,6^4,6^5,6^6hexahydro-1^1H-8-oxa-2(4,2)-thiazola-1(5,3)-indola-6(1,3)-pyridazinacycloundecaphane-4-yl)-2,3-dimethylcyclopropane-1-carboxamide] |  | 3.22 | 1.83 |  | 1.35 |  |  | 1.65
CCn1c(-c2cc(C#CCN3CCCOCC3)cnc2[C@H](C)OC)c2c3cc(ccc31)-c1csc(n1)C[C@H](NC(=O)C(C)(C)CC)C(=O)N1CCC[C@H](N1)C(=O)OCC(C)(C)C2 (atropisomer, axis not shown; (Ra)) [Compound Z812, N-((6^3S,4S,Z)—(Ra)-1^2-(5-(3-(1,4-oxazepan-4-yl)prop-1-yn-1-yl)-2-((S)-1-methoxyethyl)pyridin-3-yl)-1^1-ethyl-10,10-dimethyl-5,7-dioxo-6^1,6^2,6^3,6^4,6^5,6^6-hexahydro-1^1H-8-oxa-2(4.2)-thiazola-1(5,3)-indola-6(1,3)-pyridazinacycloundecaphane-4-yl)-2.2-dimethylbutanamide] | 1.69 | 3.52 | 1.64 | 1.06 |  |  |  | 
CCn1c(-c2cc(C#CCN3CCOC[C@@H]3C)cnc2[C@H](C)OC)c2c3cc(ccc31)-c1csc(n1)C[C@H](NC(=O)[C@H]1[C@H](C)[C@@H]1C)C(=O)N1CCCC(N1)C(=O)OCC(C)(C)C2 (atropisomer, axis not shown; (Ra)) [Compound Z814] |  |  |  |  | 0.15 | 0.14 | 0.18 | 0.14
CCn1c(-c2cc(C#CC3(N4CCC4)CC3)cnc2[C@H](C)OC)c2c3cc(ccc31)-c1csc(n1)C[C@H](NC(=O)[C@H]1[C@H](C)[C@@H]1C)C(=O)N1CCC[C@H](N1)C(=O)OCC(C)(C)C2 (atropisomer, axis not shown; (Ra)) [Compound Z836-1, (1r,2R,3S)—N-((4S,Z)—(Ra)-1^2-(5-((1-(azetidin-1-yl)cyclopropyl)ethynyl)-2-((S)-1-methoxyethyl)pyridin-3-yl)-1^1-ethyl-10,10-dimethyl-5,7-dioxo-6^1,6^2,6^3,6^4,6^5,6^6-hexahydro-1^1H-8-oxa-2(4,2)-thiazola-1(5,3)-indola-6(1,3)-pyridazinacycloundecaphane-4-yl)-2,3-dimethylcyclopropane-1-carboxamide] |  |  |  |  | 0.5 | 1.05 | 0.64 | 0.83
CCn1c(-c2cc(C#CCN3CCS(=N)(=O)CC3)cnc2[C@H](C)OC)c2c3cc(ccc31)-c1csc(n1)C[C@H](NC(=O)[C@H]1[C@H](C)[C@@H]1C)C(=O)N1CCC[C@H](N1)C(=O)OCC(C)(C)C2 (atropisomer, axis not shown; (Ra)) [Compound Z850, (1r,2R,3S)—N-((6^3S,4S,Z)-1^1-ethyl-(Ra)-1^2-(5-(3-(1-imino-1-oxo-11^6-thiomorpholino)prop-1-yn-1-yl)-2-((S)-1-methoxyethyl)pyridin-3-yl)-10,10-dimethyl-5,7-dioxo-6^1,6^2,6^3,6^4,6^5,6^6-hexahydro-1^1-8-oxa-2(4,2)-thiazola-1(5,3)-indola-0(1,3)-pyridazinacycloundecaphane-4-yl)-2.3-dimethylcyclopropane-1-carboxamide] | 0.18 | 0.08 | 0.13 | 0.25 |  |  |  | 
